Test results reported in patent US10745393B2, “Small molecular probes, processes and use thereof” (JAWAHARLAL NEHRU CENTRE FOR ADVANCED SCIENTIFIC RESEARCH, priority 2014, dated 2020).
“Also recorded” adds a separate entry of the source.

Columns and labels:
[1] = test system: (AT)20-Hoechst 33258 complex; experiment: Competitive binding / FRET / CD study with preformed Hoechst complex; details: Hoechst 4 μM + (AT)20, TC 0 to 40 μM, CD signal
HEK293 cells = experiment: DNase I and RNase digestion studies; assay type: cell-based; details: 2 hours
Protocol: DNase I is known to degrade nuclear DNA while RNase degrades RNA in the cytoplasm by catalyzing phosphodiester bonds cleavage. HEK293 cells are fixed with chilled methanol for about 1 minute at room temperature and permeabilized with 0.1% Triton X-100 in PBS for about 2×5 minutes. After rinsing with PBS twice, for one set of experiments, cells are treated with probe TC (5 μM) for about 15 min at room temperature in three adjacent wells. A total of about 200 μL PBS (as control experiment), about 100 μg/mL DNase I (Sigma), or about 30 μg/ml DNase-Free RNase (GE) is added into the three adjacent wells and incubated at about 37° C. for about 2 hours. For another set of experiments, instead of treating with probe TC, cells are only treated with about 200 μL PBS (as control experiment), about 100 μg/ml DNase I (Sigma), or about 30 μg/mL DNase-Free RNase (GE) by adding into the three adjacent wells and incubating at about 37° C. for about 2 hours. […] After two more washes in PBS with 0.1% Triton X-100, the cover slips are washed in PBS, rinsed in ddH2O and briefly dipped in 100% ethanol. After a quick dry, cover slips are mounted with 70% glycerol. Images are captured using a Carl Zeiss Laser Scanning Microscope (LSM510 META) using an equal exposure time for control, DNase I, and RNase experiments. Experiments are done in duplicate.

cells = experiment: Comparison of DNA dyes: toxicity; assay type: cell-based; details: Table 3, probe of the disclosure
Source text: The major advantages of probe TC are: longer excitation/emission wavelengths (which avoids the cell damage due to the UV-light absorption commonly observed with probes like DAPI and Hoechst dyes, and auto-fluorescence from the cellular organelles and biomolecules), larger stoke shift (this provides additional advantage that avoids the self-absorption of higher energy part of their emission, useful in FRET and BRET based assays), good cell permeability (this is the major limitation of existing probes like propidium iodide, TO-PRO-dyes), non-toxicity (toxicity is the major limitation of NIR-fluorescence probes like DRAQ5 probe) and specific staining (commonly observed with SYTO and other dyes are non-specific in nature). Many commercial/reported dyes in literature are known to bind single stranded DNA, RNA etc. The probe TC is highly specific to double stranded DNA. […] In presence of AT-rich DNA, TC is a better probe than EtBr and PI which are highly toxic to cells.

(D2)mix = experiment: Fluorescence response of probes with dsDNA (D2)mix; assay type: binding
HepG2 cells = experiment: Confocal fluorescence staining of mammalian cells at low probe concentration; assay type: cell-based, human; details: (FIG. 44 legend 2 μM)
(D1)mix = experiment: Agarose gel electrophoresis staining of dsDNA band; assay type: binding; details: 3% agarose gel, about 0.6 μg dsDNA, UV-illumination
(AT)10 = experiment: Absorption / fluorescence response of probes with dsDNA (AT)10; assay type: binding; details: probe 10 μM
d(AATT)5 = experiment: Absorption / fluorescence response with self-complementary d(AATT)5 duplex; assay type: binding

## CCN(CC)c1ccc2cc(/C=C/c3sc4ccccc4[n+]3C)c(=O)oc2c1 [TC, (E)-3-(2-(N-methyl-benzo[d]thiazol-2-yl)vinyl)-7-(diethylamino)-2H-chromen-2-one]
[1]
  competition with Hoechst for minor groove binding site: not competing with Hoechst for binding site in the minor groove of dsDNA
HEK293 cells; DNase I about 100 μg/mL
  fluorescence nuclear staining after DNase I digestion: almost completely diminished
HEK293 cells; RNase about 30 μg/mL
  fluorescence nuclear staining after RNase digestion: does not affect the fluorescence staining
cells
  Toxicity: Non-Toxic
(D2)mix; TC 10 μM, DNA 0 to 12 μM
  fluorescence enhancement in presence of (D2)mix: ~1.5 fold
(D2)mix; increasing concentrations of TC (1 μM to 20 μM), FIG. 10
  fluorescence enhancement in presence of (D2)mix: ~1.5 fold
HepG2 cells
  fluorescence / uptake in HepG2 cells: does not show any detectable fluorescence; also recorded: No detectable uptake
(D1)mix
  gel staining of (D1)mix band: strong fluorescence intensity
(AT)10
  emission maxima in presence of (AT)10: 616 nm
(AT)10; DNA 0 to 12 μM
  fluorescence enhancement in presence of (AT)10: ~8 fold
d(AATT)5
  fluorescence enhancement in presence of d(AATT)5: ~16 folds
